Where two headings read alike, the source gives them in different places.
How the values were obtained:
[1] = biological target: T1, myeloperoxidase (MPO) (Homo sapiens, UniProt P05164); assay: HOCl production by isolated MPO-H2O2-Cl− system; assay type: biochemical
[2] = biological target: T1, myeloperoxidase (MPO); assay: HOCl production by isolated MPO-H2O2-Cl− system; assay type: biochemical; remark: listed apart in the source

T1 sequence (P05164 165-273): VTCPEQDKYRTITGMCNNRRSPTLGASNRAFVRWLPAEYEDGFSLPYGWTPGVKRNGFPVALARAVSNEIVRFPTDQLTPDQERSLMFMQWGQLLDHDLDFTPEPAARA
T1 sequence (P05164 279-745): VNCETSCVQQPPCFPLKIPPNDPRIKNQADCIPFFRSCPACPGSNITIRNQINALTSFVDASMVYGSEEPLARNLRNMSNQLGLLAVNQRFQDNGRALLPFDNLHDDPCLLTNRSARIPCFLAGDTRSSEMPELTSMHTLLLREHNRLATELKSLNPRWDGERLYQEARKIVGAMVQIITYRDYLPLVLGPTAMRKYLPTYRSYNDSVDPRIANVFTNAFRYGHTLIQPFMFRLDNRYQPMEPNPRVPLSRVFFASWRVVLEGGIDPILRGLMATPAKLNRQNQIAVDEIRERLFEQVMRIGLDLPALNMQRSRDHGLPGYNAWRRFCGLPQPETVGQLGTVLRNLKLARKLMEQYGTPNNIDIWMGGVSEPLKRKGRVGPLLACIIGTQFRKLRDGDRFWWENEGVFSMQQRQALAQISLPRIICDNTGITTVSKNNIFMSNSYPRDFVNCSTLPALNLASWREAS

Structure (SMILES) | IC50 [1] | IC50 [2]
CC1(C)CC(N)C(C)(C)N1[O] (centres unmarked) [3-AminoPROXYL, 3-amino-2,2,5,5-tetramethylpyrrolidin-1-yloxyl] | 2.7 µM | –
CC1(C)CC(N)CC(C)(C)N1[O] [4-AminoTEMPO, 4-amino-2,2,6,6-tetramethylpiperidin-1-yloxyl] | – | 1.2 µM
